Measured values as given in US4999344A, “Phosphatidyl treatment of rapidly proliferating cells” (priority 1988, dated 1991).
pIC50: −log10 of the molar value.

How the values were obtained:
[1] = system: MCF-7 wild-type (WT) breast cancer cells; assay: TCA-precipitable 2-[3H]methylthymidine incorporation; type: cell-based; settings: thymidine incorporation
Protocol: In order to further assess cell viability between wild-type (MCF-7 wild-type cell line) (WT) and multi-drug resistant MCF-7 ADR^R (MDR^R) breast cancer cells, tests involving TCA-precipitable 2-[^3 H]methylthymidine incorporation were employed. MCF-7 WT and ADR^R cells were plated (Day 1) at 1500 cells/well in 96-well cluster plates. On Day 2, phospholipid preparations were added to triplicate cultures. On Day 7, 2-[^3 H]methylthymidine was added and the cells harvested as described (Jett et al., Cancer Res. (1985) 45:4810-4815), using 5% TCA as the wash buffer. Results were expressed as the geometric mean of triplicate cultures.

[2] = system: multi-drug resistant MCF-7 ADR^R breast cancer cells; assay: as above; type: cell-based; settings: thymidine incorporation
Protocol: MCF-7 cells were continuously exposed to increasing concentrations of adriamycin resulting in multidrug-resistance (mdr) as a stable genetic trait (Batist et al., J. Biol. Chem. (1986) 261:[…]). The mdr cells are referred to as ADR^R cells. MCF-7 WT (wild-type) and ADR^R cells were plated at 1000 cells/well (9.6 cm^2) in RPMI 1640 supplemented with 10% fetal bovine serum (day 1). Plant PI (0.5-150 μM) in the form of multilamellar vesicles (Jett and Alving, in Methods in Enzymology 141B (eds. Conn. P.M. and Means A.R.) 459-466, Academic Press, Orlando, FL 1987) or adriamycin (1-2000 nM) was added to the cultures on day 2. At day 8-10, the fluid was removed and clones were fixed, stained and counted. Colonies were scored positive if >40 cells/clone Adriamycin (10-500 nM) or plant PI (20-200 μM) was added at the time of cell plating. At day 8-10, the colony forming units of granulocytes and monocytes (CFV-GM) were counted. The results were the average of triplicate experiments.
In order to further assess cell viability between wild-type (MCF-7 wild-type cell line) (WT) and multi-drug resistant MCF-7 ADR^R (MDR^R) breast cancer cells, tests involving TCA-precipitable 2-[^3 H]methylthymidine incorporation were employed. MCF-7 WT and ADR^R cells were plated (Day 1) at 1500 cells/well in 96-well cluster plates. […] Results were expressed as the geometric mean of triplicate cultures.

N4TG1 = assay: Liposomal uptake by normal and tumor cells; type: cell-based, mouse; settings: tumor cells N4TG1
Protocol: (§1) Thymidine uptake is a method of assessing cell viability of cultured cells, and decreased thymidine uptake occurs as a result of cytotoxicity caused by contact with toxic substances. , MRC-5 normal embryonic lung fibroblasts; , W1-38SV/40 transformed embryonic human lung fibroblasts; .quadrature..quadrature., SK-N-MC human glioblastoma cells and , N4TG1 mouse neuroblastoma cells.
(§2) Cells were treated with liposomes containing synthetic preparations of PI (left frames) or PC (right frames) containing palmitic acid in the sn-1 position and either [^14 C]linoleic acid in the sn-2 position (FIGS. 5 and 5a) or [^14 C]arachidonic acid in the sn-2 position (FIGS. 6 and 6a) or [^14 C]oleic acid in the sn-2 position (FIGS. 7 and 7a). The liposomes were comprised of the indicated phospholipids (PI or PC) and cholesterol in a molar ratio of 2:1.
(§3) The data in Table 5 was obtained concomitantly with the toxicity studies in FIGS. 5-7a.

[3] = Sedimentation of liposomes by low speed / differential centrifugation; type: physicochemical; settings: label used as liposome marker
Excerpt: In both FIGS. 4a and 4b, pellets 1, 2, and 3 were obtained by differential centrifugation.

HT-144 [4] = assay: Liposomal uptake by normal and tumor cells; type: cell-based, human; settings: tumor cells HT-144
Protocol: as §2, §3

SK-N-MC [5] = assay: Liposomal uptake by normal and tumor cells; type: cell-based, human; settings: tumor cells SK-N-MC
Protocol: as §1, §2, §3

WI-38/SV-40 [6] = assay: Liposomal uptake by normal and tumor cells; type: cell-based, human
Protocol: as §1, §2, §3

[7] = system: N4TG1 neuroblastoma cells; assay: Fate of liposomal PI after incubation with N4TG1 neuroblastoma cells; type: in vitro ADME, mouse
Excerpt: Lipids were dried and resuspended exactly as described previously in the Biochem. Biophys. Res. Commun. article. In the use of ([^14 C]linoleoyl)PI, ([^14 C]oleoyl)PI, or ([^14 C]arachidonoyl)PI the phospholipids were used in a 2:1 molar combination with cholesterol. Cholesterol was included in the liposomes in order to minimize the net transfer of cholesterol into or out of the cells. ([^3 H]myo-Inositol)PI was used as a tracer (1%) with bovine liver PI as the bulk phospholipid carrier for forming liposomes. [^3 H]Linoleic acid was used as a tracer (4%) in liposomes containing linoleic acid:PI (yeast or animal): cholesterol, 2:1. […]
In order to extract lipids, methanol and chloroform were added to cell homogenates to obtain a single phase of CHCl3 :CH3 OH:H2 O (1:2:1 8, v/v) containing 0.1M HCl, according to Bligh and Dyer in Can. […] The lipid compositions of the cell extracts were determined by thin layer chromatography on silica gel precoated sheets (E. M. Reagents; E. Merck, FRG) using the following solvent systems: (a) chloroform:methanol: acetic acid:water, 25:15:4:2 (v/v) (used for phospholipid separation): (b) 1-propanol:4.3M ammonia containing 10 mM EDTA, 65:35 (v/v) (used for PIP and PIP2 separations); and (c) chloroform:acetone, 1:1 (v/v) (used for DG and fatty acid separations). […]

N4TG1 Neuroblastoma = assay: LD50 to tumor cells of various preparations of PI; type: cell-based; settings: Mus musculus
Excerpt: as §1, with “FIGS. 5 through 7 a show comparisons of the effects of liposomes having varous phospholipids containing defined fatty acids on [^3 H-methyl]-thymidine uptake. Thymidine” for “Thymidine”
(§4) [methyl-^3 H]Thymidine (New England Nuclear) incorporation was carried out using 96-well plates (Costar). Thymidine incorporation was used as an assay for cell viability, since in the previous studies described in the Biochem. Biophys. Res. Commun. (1983) article, other methods of assessing cell viability, including microscopic evaluation in the presence of trypan blue, gave identical results. Fifty μl of cell suspension (4×10^5 cells/ml) were added to duplicate wells. Approximately 18 hours later 25 μl of the PI-containing liposomes were added to give a final concentration of phospholipid of 200 μM (approximately, 14 nmol/2-3×10^4 cells). At various intervals after PI addition [^3 H]thymidine, 1 μCi/well was added and incubated with the cells for 3 hours. Cells were collected on glass fiber filter mats by a mechanical cell harvester (Skatron, Inc.) using a combination of scraping and fluid turbulence (saline). Filters were dried and the material was solubilized by incubation overnight with NCS tissue solubilizer and counted in the presence of Spectrafluor (Amersham).
(§5) Res Commun. article cited above. The LD50 values for some of the cell lines reported in the Biochem. Biophys. Res. Commun. article are compared with LD50 values obtained using Avanti plant PI or synthetic ([14 C]linoleoyl)PI.

SK-N-MC [8] = assay: LD50 to tumor cells of various preparations of PI; type: cell-based; settings: Homo sapiens
Excerpt: as §1, with “FIGS. 5 through 7 a show comparisons of the effects of liposomes having varous phospholipids containing defined fatty acids on [^3 H-methyl]-thymidine uptake. Thymidine” for “Thymidine”
as §4, §5

WI-38/SV-40 [9] = assay: LD50 to tumor cells of various preparations of PI; type: cell-based; settings: Homo sapiens
Excerpt: as §1, with “FIGS. 5 through 7 a show comparisons of the effects of liposomes having varous phospholipids containing defined fatty acids on [^3 H-methyl]-thymidine uptake. Thymidine” for “Thymidine”
as §4, §5

MRC-5 = assay: Liposomal uptake by normal and tumor cells; type: cell-based; settings: normal cells MRC-5
Protocol: as §1, §2, §3

HT-144 [10] = assay: LD50 to tumor cells of various preparations of PI; type: cell-based; settings: Homo sapiens
Protocol: as §4, §5

[11] = system: N4TG1 neuroblastoma cells; assay: Thymidine uptake (cell viability) by N4TG1 neuroblastoma cells incubated with liposomes; type: cell-based, mouse; settings: FIG. 1
Protocol: Plant PI(S) is from the Sigma Chemical Company and plant PI(A) is from Avanti Polar Lipids, Inc. and ([^14 C]linoleoyl)PI is the synthetic PI.
FIGS. 3a and 3b show the effect of increasing the molar fraction of synthetic PI or animal PI in liposomes on (a) thymidine uptake (FIG. 3a) and myo-inositol uptake (FIG. 3b) by N4TG1 neuroblastoma cells, .circle. 100 μm PI, 200 μm PI, 300 μm PI. Cells were incubated with liposomes made up of the various combinations indicated (mol %) of ([^14 C]linoleoyl)PI and animal PI.
FIGS. 9a, b, c, and d show the effect of inhibitors on PI toxicity to tumor cells.
Lipids were dried and resuspended exactly as described previously in the Biochem. Biophys. Res. Commun. article. In the use of ([^14 C]linoleoyl)PI, ([^14 C]oleoyl)PI, or ([^14 C]arachidonoyl)PI the phospholipids were used in a 2:1 molar combination with cholesterol. Cholesterol was included in the liposomes in order to minimize the net transfer of cholesterol into or out of the cells. ([^3 H]myo-Inositol)PI was used as a tracer (1%) with bovine liver PI as the bulk phospholipid carrier for forming liposomes. [^3 H]Linoleic acid was used as a tracer (4%) in liposomes containing linoleic acid:PI (yeast or animal): cholesterol, 2:1. It was shown that it is not necessary to have cholesterol present to observe the cytotoxicity.
The N4TG1 mouse neuroblastoma cell line was obtained from Dr. Peter Chiang (Walter Reed Army Institute of Research) and cultured using Dulbecco's minimal essential medium (MEM: Grand Island Biological Co.) containing 10% fetal bovine serum. Cells were routinely started from frozen cultures every 6 weeks in order to assure that the cells used were from low passage cultures.
as §4
In FIGS. 1 and 2 the curves were quite reproducible and representative experiments are shown. Because of fluctuations (<5%) in control values, the data were "normalized" by comparison with daily controls and expressed as "percentage of control in absence of PI." Typical values for uptake of [^3 H]thymidine by controls are shown in the inserts in FIGS. 1 and 2.

Human marrow CFV-GM = assay: Colony forming units of granulocytes and monocytes; type: cell-based; settings: Monocyte, 192 h
[12] = system: tumor cells from cultured cell lines; settings: earlier articles; cited from earlier work

Which results are given for CCCCC/C=C\C/C=C\CCCCCCCC(=O)O[C@H](COC(=O)CCCCCCCCCCCCCCC)COP(=O)([O-])OCC[N+](C)(C)C?
toxicity [1]: not as toxic as synthetic phosphatidylinositol containing the identical fatty acids; toxicity [2]: not as toxic as synthetic phosphatidylinositol containing the identical fatty acids

Which results are given for CCCCC/C=C\C/C=C\CCCCCCC[14C](=O)O[C@H](COC(=O)CCCCCCCCCCCCCCC)COP(=O)(O)O[C@@H]1[C@H](O)[C@H](O)[C@@H](O)[C@H](O)[C@H]1O [([^14 C]linoleoyl)PI, sn-3-phosphatidyl(1-palmitoyl-2-[1'-^14 C]linoleoyl)myo-inositol]?
Liposomal uptake (N4TG1): 0.39 nMoles of phospholipid/1 × 10^5 cells; liposomes sedimented by low speed centrifugation [3]: 8%; liposomes which did not sediment [3]: 92%; Liposomal uptake (HT-144 [4]): 0.39 nMoles of phospholipid/1 × 10^5 cells; Liposomal uptake (SK-N-MC [5]): 0.45 nMoles of phospholipid/1 × 10^5 cells; Liposomal uptake (WI-38/SV-40 [6]): 0.39 nMoles of phospholipid/1 × 10^5 cells; DG (diglycerides) [7]: 0.8; pIC50 (N4TG1 Neuroblastoma; 3 hours): 4.60; pIC50 (N4TG1 Neuroblastoma; 8 hours): 4.60; pIC50 (SK-N-MC [8]; 3 hours): 4.41; pIC50 (SK-N-MC [8]; 8 hours): 4.42; pIC50 (WI-38/SV-40 [9]; 3 hours): 4.19; pIC50 (WI-38/SV-40 [9]; 8 hours): 4.46; Liposomal uptake (MRC-5): 0.09 nMoles of phospholipid/1 × 10^5 cells; pIC50 (HT-144 [10]; 3 hours): 4.60; pIC50 (HT-144 [10]; 8 hours): 4.60; effectiveness vs plant PI from Sigma [11]: slightly more effective

With COc1cccc2c1C(=O)c1c(O)c3c(c(O)c1C2=O)C[C@@](O)(C(=O)CO)C[C@@H]3O[C@H]1C[C@H](N)[C@H](O)[C@H](C)O1 [adriamycin] as the molecule, how does the pIC50 (Human marrow CFV-GM) read?
Its pIC50 is 7.10.

Which “anti-tumor effect / selective killing of tumor cells” value [12] does the source give for CCCCCCCC/C=C\CCCCCCCC(=O)O[C@H]1CC[C@@]2(C)C(=CC[C@H]3[C@@H]4CC[C@H]([C@H](C)CCCC(C)C)[C@@]4(C)CC[C@@H]32)C1 [cholesteryl oleate] here?
Its value is “reduced the anti-tumor effect”.

Which results are given for CCCCCCCCCCCCCCCCCC(=O)OCC(COP(=O)([O-])OCC[N+](C)(C)C)OC(=O)CCCCCCCCCCCCCCCCC (centres unmarked) [distearoyl phosphatidyl choline, reference compound]?
toxicity [1]: no toxicity; toxicity [2]: no toxicity
